For orientation: IC50 means the concentration needed to halve the response being measured.

Sequence of IGF-1R (P08069 31-1367): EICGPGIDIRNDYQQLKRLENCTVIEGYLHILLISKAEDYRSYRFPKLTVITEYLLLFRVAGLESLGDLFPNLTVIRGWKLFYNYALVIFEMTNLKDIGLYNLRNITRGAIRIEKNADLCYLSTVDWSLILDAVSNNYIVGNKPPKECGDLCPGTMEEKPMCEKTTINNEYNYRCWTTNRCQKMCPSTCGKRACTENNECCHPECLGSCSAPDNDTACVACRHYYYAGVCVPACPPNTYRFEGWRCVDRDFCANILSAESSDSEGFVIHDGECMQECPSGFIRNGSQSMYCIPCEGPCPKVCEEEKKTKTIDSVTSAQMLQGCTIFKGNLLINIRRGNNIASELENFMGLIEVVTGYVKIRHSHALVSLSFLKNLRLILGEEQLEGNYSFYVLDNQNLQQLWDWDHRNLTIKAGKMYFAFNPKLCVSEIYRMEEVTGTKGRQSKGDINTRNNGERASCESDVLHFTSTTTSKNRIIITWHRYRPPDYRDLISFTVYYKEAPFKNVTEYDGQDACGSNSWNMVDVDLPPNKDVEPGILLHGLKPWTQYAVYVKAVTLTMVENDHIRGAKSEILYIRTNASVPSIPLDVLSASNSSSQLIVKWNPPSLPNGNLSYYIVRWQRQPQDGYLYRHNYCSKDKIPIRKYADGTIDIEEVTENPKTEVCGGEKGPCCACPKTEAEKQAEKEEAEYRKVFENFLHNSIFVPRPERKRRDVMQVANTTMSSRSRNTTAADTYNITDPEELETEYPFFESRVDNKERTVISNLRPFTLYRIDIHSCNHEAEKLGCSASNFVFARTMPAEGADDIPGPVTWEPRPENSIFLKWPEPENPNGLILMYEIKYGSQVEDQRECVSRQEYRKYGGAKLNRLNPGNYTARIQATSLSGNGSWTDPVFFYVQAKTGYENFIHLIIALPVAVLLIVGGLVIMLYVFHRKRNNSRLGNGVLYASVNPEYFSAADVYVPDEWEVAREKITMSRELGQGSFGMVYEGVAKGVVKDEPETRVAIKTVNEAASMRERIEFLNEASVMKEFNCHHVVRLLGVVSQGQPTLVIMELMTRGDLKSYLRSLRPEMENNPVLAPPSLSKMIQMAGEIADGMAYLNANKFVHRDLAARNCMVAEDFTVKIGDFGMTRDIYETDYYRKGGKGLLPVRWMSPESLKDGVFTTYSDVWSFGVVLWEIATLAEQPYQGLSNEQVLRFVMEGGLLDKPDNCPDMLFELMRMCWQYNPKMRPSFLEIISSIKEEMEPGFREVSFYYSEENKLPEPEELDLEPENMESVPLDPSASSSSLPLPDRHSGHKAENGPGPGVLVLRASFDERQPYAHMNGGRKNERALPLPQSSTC

This assay deals with IGF-1R (Homo sapiens (Human), UniProt P08069). The assay is described as follows: Example B-1: IGF-1R Assay (PC3 cells, IGF1 stimulation, AlphaLISA). Format: cell-based. Particulars: 200 ng/mL IGF1 stimulation, read-out: Biological Activity against IGF-1R IC50. The procedure:
50K PC3 cells were seeded on day 1 in 50 μL of media in 96-well plate and incubated overnight at 37° C., 5% CO2. On day 2, all cells were expected to be at 80-90% confluency. Cells were starved for two hours by changing the media to 90 μL of EMEM serum-free media and incubated for 2 hours. Next, cells were treated with 10 μL of 10× concentrated and 3× serially diluted compounds for two hours. It makes 1× of compounds in 100 μL media. This was followed by stimulation of cells with 11×IGF1 for 30 min in 10 μL of serum-free EMEM media at the final concentration of 200 ng/mL.
The media was removed and replaced by 50 μL of 1× lysis buffer from the AlphaLISA kit (with 1× of cOmplete™ protease inhibitor). The plates were sealed, and cells were allowed to lyse for 10 min in the shaker before storing the plate at −20° C. until used. The AlphaLISA assay with processed cell lysates were performed as described in the protocol. Briefly, 10 μL of the undiluted sample were loaded to 384 well Optiplates and 5 μL of the acceptor mix (as described in the AlphaLISA kit) was added to each well. The plates were sealed and briefly vortexed followed by the incubation at RT for 3 hours. In the dark, 5 μL of donor mix was added to each well. All plates were sealed and stored at RT overnight. The plates were read in EnVision reader using standard AlphaLISA settings.
Compound activity was analyzed using CBIS data analysis suite (ChemInnovation, CA). Percentage inhibition was calculated using the following formula: % Inhibition=100%×(1−(mean RLU of test sample−mean RLU of vehicle control)/(mean RLU of EC80 control−mean RLU of vehicle control)). The activity for representative examples of the invention is shown in the following table, wherein A: IC50≤500 nM; B: 500 nM<IC50≤2 μM; C: 2 μM<IC50≤10 μM; D: IC50>10 μM.
Background: Alpha assays give light when donor and acceptor beads are brought close together.
For the compound “7-(2-{3-methoxy-4-[(1s,3s)-3- (dimethylamino)cyclobutoxy] phenylamino}-4- pyrimidinylamino)-2,2- dimethyl-2,4-dihydro-1-oxa- 4,5-diaza-3-naphthalenone [Compound 288]”, the IC50 is 0.5 to 2 µM.

As to `COc1cc(Nc2nccc(Nc3cnc4ccccc4c3)n2)ccc1N1CCC(N2CCN(C)CC2)CC1` [Compound 2, 2-{3-methoxy-4-[4-(4-methyl-1-piperazinyl)-1-piperidyl]phenylamino}-4-(3-quinolylamino)pyrimidine], the IC50 is no more than 0.5 µM.

On to `COc1cc(Nc2nccc(Nc3ccc4c(n3)CC3CCC4N3C)n2)ccc1OCCCN1CCCCC1` (centres unmarked) [Compound 4, 2-[3-methoxy-4-(3-piperidinopropoxy)phenylamino]-4-(12-methyl-6,12-diazatricyclo[7.2.1.0^2,7]dodeca-2,4,6-trien-5-ylamino)pyrimidine], for which the 50% inhibitory concentration (IC50) was 2 to 10 µM.

Turning to `COc1cc(Nc2nccc(Nc3cnc4c(C(F)(F)F)cccc4c3)n2)ccc1OCCCN1CCCCC1` [Compound 5, 2-[3-methoxy-4-(3-piperidinopropoxy)phenylamino]-4-[8-(trifluoromethyl)-3-quinolylamino]pyrimidine], the IC50 is no more than 0.5 µM.

For `COc1cc(Nc2nccc(Nc3cnc4ccc(OC(F)(F)F)cc4c3)n2)ccc1OCCCN1CCCCC1` [Compound 6, 2-[3-methoxy-4-(3-piperidinopropoxy)phenylamino]-4-(6-trifluoromethoxy-3-quinolylamino)pyrimidine], the IC50 is no more than 0.5 µM. Next, `COc1cc(Nc2nccc(Nc3cnc4c(OC(F)(F)F)cccc4c3)n2)ccc1O[C@H]1C[C@H](N(C)C)C1` [Compound 7, 2-{3-methoxy-4-[(1r,3r)-3-(dimethylamino)cyclobutoxy]phenylamino}-4-(8-trifluoromethoxy-3-quinolylamino)pyrimidine]: no more than 0.5 µM; `COc1cc(Nc2nccc(Nc3cnc4cc(OC(F)(F)F)ccc4c3)n2)ccc1O[C@H]1C[C@H](N(C)C)C1` [Compound 8, 2-{3-methoxy-4-[(1r,3r)-3-(dimethylamino)cyclobutoxy]phenylamino}-4-(7-trifluoromethoxy-3-quinolylamino)pyrimidine]: no more than 0.5 µM; `COc1cc(Nc2nccc(Nc3cnc4cc(NC(C)=O)ccc4c3)n2)ccc1O[C@H]1C[C@@H](N(C)C)C1` [Compound 9, N-[3-(2-{3-methoxy-4-[(1s,3s)-3-(dimethylamino)cyclobutoxy]phenylamino}-4-pyrimidinylamino)-7-quinolyl]acetamide]: no more than 0.5 µM. Take `COc1cc(Nc2nccc(Nc3cc4ccccc4[nH]c3=O)n2)cnc1O[C@H]1C[C@@H](N(C)C)C1` [Compound 11, 3-(2-{5-methoxy-6-[(1s,3s)-3-(dimethylamino)cyclobutoxy]-3-pyridylamino}-4-pyrimidinylamino)-2(1H)-quinolinone]: the IC50 is no more than 0.5 µM. Next, `COc1cc(Nc2nccc(Nc3cnc4cc(N)ccc4c3)n2)ccc1O[C@H]1C[C@@H](N(C)C)C1` [Compound 12, 4-(7-amino-3-quinolylamino)-2-{3-methoxy-4-[(1s,3s)-3-(dimethylamino)cyclobutoxy]phenylamino}pyrimidine]: no more than 0.5 µM. Next, `COc1cc(Nc2nccc(Nc3cnc4ccccc4c3)n2)ccc1OCCCN1CCOCC1` [Compound 14, 2-[3-methoxy-4-(3-morpholinopropoxy)phenylamino]-4-(3-quinolylamino)pyrimidine]: no more than 0.5 µM; `COc1cc(Nc2nccc(Nc3cnc4ccccc4c3)n2)ccc1O[C@H]1CC[C@H](N2CCOCC2)CC1` [Compound 16, 2-{3-methoxy-4-[(1r,4r)-4-morpholinocyclohexyloxy]phenylamino}-4-(3-quinolylamino)pyrimidine]: no more than 0.5 µM; `COc1cc(Nc2nccc(Nc3cnc4ccccc4c3)n2)ccc1O[C@H]1CC[C@@H](N2CCOCC2)CC1` [Compound 18, 2-{3-methoxy-4-[(1s,4s)-4-morpholinocyclohexyloxy]phenylamino}-4-(3-quinolylamino)pyrimidine]: no more than 0.5 µM. Next, `COc1cc(O[C@H]2C[C@@H](N(C)C)C2)ccc1Nc1nccc(Nc2cnc3ccccc3c2)n1` [Compound 19, 2-{2-methoxy-4-[(1s,3s)-3-(dimethylamino)cyclobutoxy]phenylamino}-4-(3-quinolylamino)pyrimidine]: no more than 0.5 µM; `COc1cc(OCCCN2CCCCC2)ccc1Nc1nccc(Nc2cnc3ccccc3c2)n1` [Compound 20, 2-[2-methoxy-4-(3-piperidinopropoxy)phenylamino]-4-(3-quinolylamino)pyrimidine]: no more than 0.5 µM.

On to `COc1cc(Nc2nccc(Nc3cnc4ccccc4c3)n2)ccc1O[C@H]1C[C@H](N2CCOCC2)C1` [Compound 22, 2-{3-methoxy-4-[(1r,3r)-3-morpholinocyclobutoxy]phenylamino}-4-(3-quinolylamino)pyrimidine], for which the IC50 was no more than 0.5 µM. The result for `COc1cc(Nc2nccc(Nc3cnc4c(c3)OCCO4)n2)ccc1O[C@H]1C[C@H](N2CCOCC2)C1` [Compound 23, 4-(2,3-dihydro-1,4-dioxa-5-aza-7-naphthylamino)-2-{3-methoxy-4-[(1r,3r)-3-morpholinocyclobutoxy]phenylamino}pyrimidine] reads no more than 0.5 µM.

For the compound `COc1cc(Nc2nccc(Nc3cnc4ccccc4c3)n2)ccc1O[C@H]1C[C@H](N2CCS(=O)(=O)CC2)C1` [Compound 24], the IC50 is no more than 0.5 µM.

With `COc1cc(Nc2nccc(Nc3cnc4ccc(Cl)cc4c3)n2)ccc1O[C@H]1C[C@H](N2CCS(=O)(=O)CC2)C1` [Compound 25, 4-[(1r,3r)-3-{4-[4-(6-chloro-3-quinolylamino)-2-pyrimidinylamino]-2-methoxyphenoxy}cyclobutyl]-1λ^6,4-thiazinane-1,1-dione], the concentration for half-maximal inhibition (IC50) was no more than 0.5 µM.

On to `c1ccc2ncc(Nc3ccnc(Nc4ccc(O[C@H]5C[C@H](N6CCOCC6)C5)cc4)n3)cc2c1` [Compound 26, 4-(3-quinolylamino)-2-{p-[(1r,3r)-3-morpholinocyclobutoxy]phenylamino}pyrimidine], for which the IC50 is no more than 0.5 µM. Next, `CN(C)[C@H]1C[C@H](Oc2ccc(Nc3nccc(Nc4cnc5ccccc5c4)n3)cc2)C1` [Compound 27, 4-(3-quinolylamino)-2-{p-[(1r,3r)-3-(dimethylamino)cyclobutoxy]phenylamino}pyrimidine]: no more than 0.5 µM; `c1ccc2ncc(Nc3ccnc(Nc4ccc(O[C@H]5C[C@@H](N6CCOCC6)C5)cc4)n3)cc2c1` [Compound 28, 4-(3-quinolylamino)-2-{p-[(1s,3s)-3-morpholinocyclobutoxy]phenylamino}pyrimidine]: no more than 0.5 µM; `CN1[C@@H]2COC[C@H]1C[C@@H](Oc1ccc(Nc3nccc(Nc4cnc5ccccc5c4)n3)cc1)C2` [Compound 29, 2-(p-{(1R,5S,7r)-9-methyl-3-oxa-9-azabicyclo[3.3.1]non-7-yloxy}phenylamino)-4-(3-quinolylamino)pyrimidine]: no more than 0.5 µM. As for `CN1[C@@H]2COC[C@H]1C[C@H](Oc1ccc(Nc3nccc(Nc4cnc5ccccc5c4)n3)cc1)C2` [Compound 30, 2-(p-{(1R,5S,7s)-9-methyl-3-oxa-9-azabicyclo[3.3.1]non-7-yloxy}phenylamino)-4-(3-quinolylamino)pyrimidine], the half-maximal inhibitory concentration (IC50) is no more than 0.5 µM. Next, `c1ccc2ncc(Nc3ccnc(Nc4ccc(OCCCN5CCOCC5)nc4)n3)cc2c1` [Compound 31, 2-[6-(3-morpholinopropoxy)-3-pyridylamino]-4-(3-quinolylamino)pyrimidine]: no more than 0.5 µM; `COc1cc(Nc2nccc(Nc3cnc4ccc(Br)cc4c3)n2)ccc1O[C@H]1CC[C@@H](N2CCOCC2)CC1` [Compound 32, 4-(6-bromo-3-quinolylamino)-2-{3-methoxy-4-[(1s,4s)-4-morpholinocyclohexyloxy]phenylamino}pyrimidine]: no more than 0.5 µM; `COc1cc(Nc2nccc(Nc3cnc4ccc(Br)cc4c3)n2)ccc1O[C@H]1CC[C@@H](N(C)C)CC1` [Compound 33, 4-(6-bromo-3-quinolylamino)-2-{3-methoxy-4-[(1s,4s)-4-(dimethylamino)cyclohexyloxy]phenylamino}pyrimidine]: no more than 0.5 µM. Next, `CN(C)[C@H]1C[C@H](Oc2ccc(Nc3nccc(Nc4cnc5ccccc5c4)n3)cc2Br)C1` [Compound 34, 2-{3-bromo-4-[(1r,3r)-3-(dimethylamino)cyclobutoxy]phenylamino}-4-(3-quinolylamino)pyrimidine]: no more than 0.5 µM; `CN(C)[C@H]1C[C@H](Oc2ccc(Nc3nccc(Nc4cnc5ccccc5c4)n3)cc2Cl)C1` [Compound 35, 2-{3-chloro-4-[(1r,3r)-3-(dimethylamino)cyclobutoxy]phenylamino}-4-(3-quinolylamino)pyrimidine]: no more than 0.5 µM.

Source of the values: patent publication US20250171431A1, “HETEROCYCLIC INHIBITORS OF IGF-1R FOR TREATMENT OF DISEASE” (HORIZON THERAPEUTICS IRELAND DAC, priority 2023, published 2025).
